{"source": "patent US11938121B2", "about": "“Treatment of infections and biofilm formation using a cellulose synthase inhibitor” (Purdue Research Foundation, priority 2020, dated 2024)", "key": {"[1]": {"tested_on": "Komagataeibacter xylinus", "assay": "K. xylinus cell growth on HS solid medium", "assay_type": "cell-based", "conditions": "6 days", "text": "Based on primary protein sequence analysis and a comparison of three-dimensional protein structures, the catalytic sites of cellulose synthases are highly conserved across kingdoms (Huang et al., 2020, Purushotham et al., 2020). The amino acids that are directly involved in glucan chain initiation, elongation, and translocation are conserved between plant and bacterial cellulose synthases (Huang et al., 2020). Based on the conservation of catalytic sites in cellulose synthases, we hypothesized that ES20 and ES20-1 would inhibit bacterial cellulose biosynthesis as well. We chose to test the effects of ES20 and ES20-1 on cell growth and cellulose production in Komagataeibacter xylinus (K. xylinus, previously known as Gluconacetobacter xylinus) because this bacterium produces abundant cellulose. We first tested whether ES20 and ES20-1 affect K. xylinus cell growth. We grew K. xylinus cells in liquid […] (HS) medium and then we inoculated 20 μL of series diluted culture to HS solid growth medium supplemented with DMSO (0.1%) or different concentrations of ES20 and ES20-1. […] We found ES20 and ES20-1 affect K. xylinus colony morphology as well. […] Wrinkles radiating structure is often observed in cellulose-producing bacteria strains and this structure is often affected when cellulose biosynthesis is disrupted.\nKomagataeibacter xylinus (previously named Gluconacetobacter xylinus) ATCC strain 700178 was obtained from ATCC (Manassas, Va., USA) to evaluate cellulose production. HS (Hestrin and Schramm) medium was used for culture; HS liquid medium contains 2.0% glucose (w/v), 0.5% yeast extract (w/v), 0.5% peptone (w/v), 0.27% Na2HPO4 (w/v), and 0.15% citric acid (w/v), pH 5.0, and HS solid medium was solidified with 1.8% agar (w/v). To prepare the initial inoculation source, a single K. xylinus colony grown on HS solid medium was transferred to HS liquid medium and cultured at 26° C. for 5 days under static conditions. We used cells from the bottom of the liquid culture as the initial inoculation source to avoid biofilm aggregates at the air-liquid interface. To test the effect of ES20 and ES20-1 on the bacteria growth, initial inoculation source was series diluted and 20 μL culture from each diluted solution was dropped on HS solid medium supplemented with DMSO (0.1%) or different concentrations of ES20 and ES20-1 and cultured at 26° C. for 6 days after the dropped culture was completely dry. To test the effects of ES20 and ES20-1 on cellulose production, the prepared inoculation source was inoculated at a dilution ratio of 1:1000 dilution in HS liquid medium supplemented with 0.1% DMSO or 20 μM of ES20 or ES20-1. Static cultivation was carried out in a 26° C. incubator, and agitated cultivation was carried out at 26° C. with shaking at 220 rpm. […]"}, "[2]": {"tested_on": "Komagataeibacter xylinus", "assay": "K. xylinus cellulose production in liquid culture", "assay_type": "cell-based", "conditions": "20 μM", "text": "We next grew K. xylinus cells in growth medium supplemented with DMSO, ES20, or ES20-1 under agitation. […] We also grew K. xylinus in liquid medium supplemented with DMSO, ES20, or ES20-1 under static cultivation conditions. Without agitation, pellicles containing cellulose often form at the air-liquid interface. […] To quantify the effects of ES20 and ES20-1 on cellulose production, we harvested the pellicles from these cultures and isolated cellulose from the pellicles.\nKomagataeibacter xylinus (previously named Gluconacetobacter xylinus) ATCC strain 700178 was obtained from ATCC (Manassas, Va., USA) to evaluate cellulose production. HS (Hestrin and Schramm) medium was used for culture; HS liquid medium contains 2.0% glucose (w/v), 0.5% yeast extract (w/v), 0.5% peptone (w/v), 0.27% Na2HPO4 (w/v), and 0.15% citric acid (w/v), pH 5.0, and HS solid medium was solidified with 1.8% agar (w/v). To prepare the initial inoculation source, a single K. xylinus colony grown on HS solid medium was transferred to HS liquid medium and cultured at 26° C. for 5 days under static conditions. We used cells from the bottom of the liquid culture as the initial inoculation source to avoid biofilm aggregates at the air-liquid interface. To test the effect of ES20 and ES20-1 on the bacteria growth, initial inoculation source was series diluted and 20 μL culture from each diluted solution was dropped on HS solid medium supplemented with DMSO (0.1%) or different concentrations of ES20 and ES20-1 and cultured at 26° C. for 6 days after the dropped culture was completely dry. To test the effects of ES20 and ES20-1 on cellulose production, the prepared inoculation source was inoculated at a dilution ratio of 1:1000 dilution in HS liquid medium supplemented with 0.1% DMSO or 20 μM of ES20 or ES20-1. Static cultivation was carried out in a 26° C. incubator, and agitated cultivation was carried out at 26° C. with shaking at 220 rpm. To isolate cellulose from pellicles, the pellicles were removed from liquid culture, washed several times with deionized water, and soaked in 0.1 M NaOH at 80° C. for 2 h. The pellicles were washed several times with deionized water to completely remove the alkali. The purified cellulose was dried at 60° C. for ˜1 day until a constant dry mass was reached."}, "[3]": {"tested_on": "AtCESA6 carrying missense mutations in prc1-1", "assay": "Root growth of transgenic plants expressing mutated AtCESA6 in prc1-1", "assay_type": "in vivo, Arabidopsis thaliana", "conditions": "D562N, D564N, D785N, Q823E, R826A, W827A in prc1-1", "text": "We then examined whether transgenic plants expressing AtCESA6 with predicted missense mutations at the catalytic site in prc1-1 background would have altered sensitivity to active ES20 analogs. […] However, the responses of two transgenic lines expressing AtCESA6 carrying missense mutations outside of the catalytic site (L365F and D395N) to nine active ES20 analogs were similar to those of wild-type plants (FIG. 2B).\nTo test the inhibitory effects of different chemicals on plant growth, wild-type Arabidopsis Col-0 plants were used. The seeds of plants used for growth assays or live cell imaging were sequentially sterilized with 50% bleach and 75% ethanol. […] To quantify the inhibitory effects of different ES20 active analogs on the root growth of Arabidopsis wildtype, EMS mutants, and transgenic plants expressing mutated AtCESA6 in prc1-1 background, sterilized Col-0, mutants, and transgenic plants seeds were sown on gridded Petri plates containing ½-strength MS medium supplemented with different concentrations of ES20 analogs. […] The plates were scanned using an Epson Perfection V550 scanner after 7 days of growth, and the root lengths of plants were quantified using ImageJ software. […] The Petri dishes were scanned, and hypocotyl length was measured using ImageJ. […]"}, "[4]": {"conditions": "5 days static cultivation, vs DMSO"}}}
{"smiles": "Cc1ccccc1C(=O)NNC(=S)NC(=O)c1ccccc1", "note": "[ES20-1]", "values": [{"measurement": "K. xylinus cell growth inhibition", "setting": "[1]; 20 μM and 50 μM", "result": "inhibit K. xylinus cell growth at both 20 μM and 50 μM concentrations"}, {"measurement": "K. xylinus colony morphology (wrinkles radiating structures)", "setting": "[1]; 20 μM", "result": "the wrinkles are not obvious"}, {"measurement": "size of cellulose clusters", "setting": "[2]; 5 days agitated cultivation, vs DMSO", "result": "smaller"}, {"measurement": "dry mass of cellulose from pellicles", "setting": "[2]; 5 days static cultivation, mean±SD, n=9", "result": "346 ± 152", "unit": "mg/L"}, {"measurement": "decrease of dry mass of cellulose from pellicles", "setting": "[2]; [4]", "result": "~30", "unit": "%"}, {"measurement": "pellicle thickness", "setting": "[2]; [4]", "result": "pellicles in cultures containing DMSO are thicker"}, {"measurement": "sensitivity of transgenic lines with AtCESA6 catalytic site mutations", "setting": "[3]", "result": "Reduced sensitivity"}]}
